Experimental findings from PMC4042666 (Bioorganic & medicinal chemistry letters, 2013) are described below.

For data set [1], the target named is HCV NS3/4A protease genotype 1b mutant A156T (Hepatitis C virus genotype 1b, UniProt Q9WMX2, A1182T). The data set can be described thus: biochemical.
Data set [2] deals with Thrombin (Homo sapiens, UniProt P00734). In words: Effect on human protease Thrombin. It is filed as biochemical.
The subject of data set [3] is HCV NS3/4A protease genotype 1b mutant A156T. In words: biochemical. The conditions noted are these: A156T vs wild type.
For data set [4], the target named is Plasmin (Homo sapiens, UniProt P00747). The data set can be described thus: Effect on human protease Plasmin. Type of data set: biochemical. The conditions noted are these: read-out: Plasmin IC90.
Chain of Plasmin (P00747 581-810 limits assumed): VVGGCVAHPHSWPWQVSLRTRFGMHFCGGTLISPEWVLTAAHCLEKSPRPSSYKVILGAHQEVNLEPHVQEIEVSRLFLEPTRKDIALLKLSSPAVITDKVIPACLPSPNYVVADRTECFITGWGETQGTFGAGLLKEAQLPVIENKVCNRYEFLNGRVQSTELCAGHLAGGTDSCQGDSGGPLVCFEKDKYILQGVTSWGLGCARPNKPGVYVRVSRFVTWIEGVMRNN
Chain of Plasmin (P00747 97-580 partner limits assumed): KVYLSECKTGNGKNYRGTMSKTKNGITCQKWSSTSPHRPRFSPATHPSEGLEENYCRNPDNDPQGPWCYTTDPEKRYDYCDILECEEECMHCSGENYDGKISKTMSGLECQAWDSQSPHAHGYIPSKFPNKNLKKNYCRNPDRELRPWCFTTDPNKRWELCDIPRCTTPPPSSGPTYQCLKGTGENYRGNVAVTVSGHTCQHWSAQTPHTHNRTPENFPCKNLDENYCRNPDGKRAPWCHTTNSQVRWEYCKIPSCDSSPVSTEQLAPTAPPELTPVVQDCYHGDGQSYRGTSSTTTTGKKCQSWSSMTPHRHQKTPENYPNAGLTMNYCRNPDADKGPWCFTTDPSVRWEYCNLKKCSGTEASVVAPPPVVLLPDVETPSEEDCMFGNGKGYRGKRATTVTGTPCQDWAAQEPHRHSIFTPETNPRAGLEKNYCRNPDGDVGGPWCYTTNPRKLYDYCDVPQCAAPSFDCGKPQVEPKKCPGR
In data set [5] the test system is primary human PBM (peripheral blood mononuclear) cells. The data set can be described thus: Cytotoxicity in PBM cells. It is filed as cell-based.
For data set [6], the system named is CEM cells (a human-T-cell-derived cell line). In words: Cytotoxicity in CEM cells. It is filed as cell-based.
For data set [7], the system named is Vero cells (African green monkey kidney epithelial cells). The data set can be described thus: Cytotoxicity in Vero cells. Type of data set: cell-based.
Data set [8] concerns HCV NS3/4A protease genotype 1b mutant A156S. Type of data set: biochemical. The conditions noted are these: A156S vs wild type.
The subject of data set [9] is HCV NS3/4A protease genotype 1b mutant V170A. It is filed as biochemical. The conditions noted are these: V170A vs wild type.
In data set [10] the test system is HCV Replicon in Huh7 cells. The data set can be described thus: Inhibition of HCV RNA replication, subgenomic HCV replicon system in Huh7 cells. Type of data set: cell-based, Hepatitis C virus. Background: Replicon systems follow genome replication, usually without infectious particles.
In data set [11] the test system is HCV NS3/4A protease genotype 1b mutant R155K. Type of data set: biochemical. The conditions noted are these: R155K vs wild type.
For data set [12], the system named is HCV NS3/4A protease genotype 1b mutant D168V. It is filed as biochemical. The conditions noted are these: D168V vs wild type.
For data set [13], the system named is Huh7 cells. In words: Cytotoxicity in Huh7 cells.

The term EC90 denotes the point of the concentration-response curve where the effect stands at 90%. Compound `CC(C)(C)NC(=O)N[C@H](C(=O)N1C[C@H]2[C@@H]([C@H]1C(=O)NC(CC1CCC1)C(=O)C(N)=O)C2(C)C)C(C)(C)C` (stereo partly drawn) [Compound 1, boceprevir] yielded an EC90 in data set [1] of over 100 µM. In addition, the “Inhibition of thrombin, in words” value in data set [2] is “submicromolar inhibition”.
As usually defined, the IC90 is the concentration needed for an effect of 90%. `CCC[C@H](NC(=O)[C@@H]1[C@H]2CCC[C@H]2CN1C(=O)[C@@H](NC(=O)[C@@H](NC(=O)c1cnccn1)C1CCCCC1)C(C)(C)C)C(=O)C(=O)NC1CC1` [Compound 2, telaprevir] had an EC90 in data set [1] of over 100 µM. Also, the “Fold Increase (FI) of EC90” value in data set [3] is recorded as over 130. Further, in [4], the IC90 stood at 110 ± 32 µM.
As for `CCCC(NC(=O)C1N(C(=O)[C@@H](NC(=O)[C@@H](NC(=O)c2cnccn2)C2CCCCC2)C(C)(C)C)CC12CCCCC2)C(=O)C(=O)NC1CC1` (stereo partly drawn) [Compound 37h], in data set [5], the “Toxicity in PBM cells, in words” value was “toxicity in the micromolar range”. Besides, the “Toxicity in CEM cells, in words” value in data set [6] is given as “toxicity in the micromolar range”. In addition, the “Toxicity in Vero cells, in words” value in [7] is “toxicity in the micromolar range”. Also, in [1], the EC90 was over 100 µM. Also, the “Fold Increase (FI) of EC50” value in [3] is given as over 130; in data set [9], over 1.2. Also, the “Fold Increase (FI) of EC90” value in [3] and in data set [8] was over 10 in each case.
As to `CCCC(NC(=O)C1CCN1C(=O)[C@@H](NC(=O)[C@@H](NC(=O)c1cnccn1)C1CCCCC1)C(C)(C)C)C(=O)C(=O)NC1CC1` (stereo partly drawn) [Compound 37d], in data set [10], the “Anti-HCV activity, in words” value was “inactive”.
Turning to `CC[C@@H]1C[C@]1(NC(=O)[C@@H]1C[C@@H]2CN1C(=O)[C@H](C(C)(C)C)NC(=O)OCC(C)(C)CCCCc1cccc3c1CN(C3)C(=O)O2)C(=O)NS(=O)(=O)C1CC1` [MK-7009, vaniprevir], in data set [1], the concentration for an effect of 90% (EC90) is over 1 µM. Further, the “Fold Increase (FI) of EC90” value in data set [3], in [11] and in [12] was over 77 each time. In addition, the “Fold Increase (FI) of EC50” value is on record as over 160 in data set [11], over 160 in data set [12] and under 0.16 in data set [8].
In the case of `CCCC(NC(=O)C1N(C(=O)[C@@H](NC(=O)[C@@H](NC(=O)c2cnccn2)C2CCCCC2)C(C)(C)C)CC12Cc1ccccc1C2)C(=O)C(=O)NC1CC1` (stereo partly drawn) [Compound 37b], the “Anti-HCV activity, in words” value in [10] was “complete loss of potency”.
On to `CC(C)(C)[C@H](NC(=O)NC1CCCCC1)C(=O)N1CC2(Cc3ccccc3C2)C1C(=O)NC(CC1CCC1)C(=O)C(=O)NC1CC1` (stereo partly drawn) [Compound 41f], for which the “Toxicity toward Huh7 cells, in words” value in [13] is listed as “toxic”.
Still for that read-out and setting: under `CCCC(NC(=O)C1N(C(=O)[C@@H](NC(=O)NC2CCCCC2)C(C)(C)C)CC12Cc1ccccc1C2)C(=O)C(=O)NC1CC1` (stereo partly drawn) [Compound 41e] stands “toxic”.
